Measured values: patent US20250154607A1, “ISOTHERMAL AMPLIFICATION OF PATHOGENS” (priority 2021, published 2025)
Values after ≈ are worked out from the molar mass of the structure shown.

Legend:
RNase A [1] = target: T1, RNase A (Bos taurus, UniProt P61823); experiment: RNase Alert assay of RNase A activity recovery after SDS/DTT pretreatment; format: biochemical
T1 sequence (P61823 27-150): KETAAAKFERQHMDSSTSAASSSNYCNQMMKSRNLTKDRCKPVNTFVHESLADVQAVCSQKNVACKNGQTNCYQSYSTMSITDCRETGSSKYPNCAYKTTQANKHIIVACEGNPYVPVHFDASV
Method: 2 ng RNase A was incubated 2 minutes at 58° C. in […] solutions containing either 10 mM DTT+0.2% SDS (+), 0.2% SDS (triangle), 10 mM DTT (square), or neither (solid line) and then the RNase Alert assay was used to study the recovery of any RNase activity upon sequestration of SDS after dissolving lyophilized APA reagents without enzymes but containing RNase Alert substrate and protective agent (4% βCD) with continued incubation and fluorescence data collection at 58° C. In the presence of RNase activity, the RNase alert indicator substrate releases detectable fluorescence. […] FIG. 11A depicts recovery of RNase A activity after identical pretreatment without addition of βCD, in this case monitoring activity in […] of the solution by transfer to an RNase alert “wet” reaction format. […] Thus, as shown here, simultaneous treatment with ionic detergent and reducing agent is required for successful irreversible inactivation under the conditions described herein. […] Without being bound by any particular theory, this may be related to the impact of cyclodextrin and other APA additives on the refolding process. This example also provides further confirmation that the prior art and currently available methods (e.g, employing a reducing agent but no denaturant) are inadequate under these conditions, with an independent, commercially available RNase assay.

nasal swab ribonucleases = experiment: Protection of RNA from nasal swab ribonucleases (influenza B RNA APA); format: biochemical, human; conditions: nasal swab eluate 4% of swab; 0.2% SDS with or without 10 mM DTT; 2 minutes at 58° C.; then 4% βCD
RNase A [2] = target: T1, RNase A; experiment: RNaseAlert assay of RNase A inactivation with CTAB and DTT after sequestration by HP-βCD; format: biochemical; conditions: for RNase A inactivation, activity upon sequestration of the detergent: 68° C.; for RNase A activity after CTAB sequestration by 4% HP-βCD: 20 ng RNase A, various temperatures
Method: FIG. 7 depicts data related to the effect of DTT on the irreversibility of RNase A inactivation in the presence of CTAB at various temperatures. To simulate authentic reaction conditions, standard APA reaction reagents lacking 9° Nm™ DNA polymerase but containing 4% HP-βCD were prepared in a lyophilized format. The lyophilized reagents also contained the RNaseAlert® assay substrate, a synthetic quenched RNA probe which releases fluorescence in the presence of active RNase A. Reagents were preincubated 2 minutes and dissolved at the indicated temperatures with […] solutions containing 20 ng RNase A ([…]) with (dotted lines) or without (shapes) 10 mM DTT which had also been preincubated at the indicated temperatures on a Bio-Rad CFx thermocycler with programmed temperature gradient.
FIG. 8 depicts data related to effect of DTT and HP-βCD on RNase A inactivation. An RNase Alert assay was used to study the effect of DTT and 0.2% cationic detergent CTAB on RNase inactivation. RNase A was spiked into solutions containing 0.2% CTAB which were then mixed with lyophilized APA reagent pellets lacking enzymes but containing RNase Alert substrate and protective agent (4% HP-0 CD) after preincubation of all solutions at 68° C. followed by fluorescence data collection at 68° C.

RNase A [3] = target: T1, RNase A; experiment: Influenza B virus APA assay with RNase A in ELB (Elution/Lysis Buffer); format: biochemical; conditions: RNAse A 10 μg/ml; 2 minutes 58° C. in ELB with 0.2% SDS, without or with 10 mM DTT; β-CD 4% final
Method: FIGS. 12A-12B depict data related to RNase A inactivation in an influenza B assay like the one in Example 4, with DTT in ELB (Elution/Lysis Buffer). […] After incubation, lyophilized APA reagents co-incubated 2 minutes 58° C., containing β-CD (4% final) were dissolved with the heated solutions, and FAM fluorescence collected every 15 seconds to monitor APA. […] The inclusion of DTT enables unimpeded operation of this POC influenza detection system in a mock sample containing very high level of purified RNase A ([…]). Moreover, while currently available methods can only achieve irreversible ribonuclease inactivation at a maximum 200 ng/ml, the compositions and methods provided herein show utility with 10 μg/ml to accommodate potentially larger amounts in patient samples.

9° Nm™ DNA polymerase [4] = target: T2, 9° Nm™ DNA polymerase (Thermococcus sp., UniProt Q56366, E143D); experiment: APA amplification of Chlamydia trachomatis DNA with CTAB, with or without HP-βCD; format: biochemical
T2 sequence (Q56366 whole entry E143D): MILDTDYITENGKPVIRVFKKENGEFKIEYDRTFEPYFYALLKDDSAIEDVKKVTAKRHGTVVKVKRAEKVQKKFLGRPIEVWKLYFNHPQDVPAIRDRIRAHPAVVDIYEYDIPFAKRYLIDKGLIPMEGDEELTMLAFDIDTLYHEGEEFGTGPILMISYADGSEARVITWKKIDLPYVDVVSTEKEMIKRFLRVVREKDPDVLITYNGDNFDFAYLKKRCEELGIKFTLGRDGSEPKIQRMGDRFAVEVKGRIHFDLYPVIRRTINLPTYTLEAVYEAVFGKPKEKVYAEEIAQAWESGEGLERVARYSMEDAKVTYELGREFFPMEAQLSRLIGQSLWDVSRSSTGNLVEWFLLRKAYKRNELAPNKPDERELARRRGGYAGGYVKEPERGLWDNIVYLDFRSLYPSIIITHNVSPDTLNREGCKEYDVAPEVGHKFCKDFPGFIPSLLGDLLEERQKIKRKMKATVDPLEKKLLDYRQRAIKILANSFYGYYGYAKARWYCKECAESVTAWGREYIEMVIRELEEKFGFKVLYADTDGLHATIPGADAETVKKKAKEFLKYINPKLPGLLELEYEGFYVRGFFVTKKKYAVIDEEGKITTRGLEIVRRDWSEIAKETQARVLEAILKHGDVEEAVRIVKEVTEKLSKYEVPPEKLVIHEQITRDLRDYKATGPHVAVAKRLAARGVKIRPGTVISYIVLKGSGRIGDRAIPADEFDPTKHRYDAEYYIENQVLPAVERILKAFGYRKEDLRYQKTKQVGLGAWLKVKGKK
Method: APA reactions containing CAdNTP and sequence-specific molecular beacon detection probes were performed as above in lyophilized (with HP-βCD; FIG. 3B) or wet reactions (no HP-βCD; FIG. 3A) and various amounts of the cationic detergent CTAB, without (“NTC”) or with the addition of 500 copies of C. trachomatis total cell DNA. Activation of CAdNTP by heating 2 minutes at 90° C. was followed by APA at 68° C. with fluorescence collected every 15 seconds.

[5] = cited from earlier work
RNase A [6] = target: T1, RNase A; experiment: Requirements for irreversible RNase inactivation (influenza B RNA APA in presence of RNase A); format: biochemical; conditions: 500 ng RNase A (10 μg/ml); additions 0.2% SDS, 10 mM DTT, 0.1% Triton X-100 as labelled; 2 minutes at 58° C.; then 4% βCD
9° Nm™ DNA polymerase [7] = target: T2, 9° Nm™ DNA polymerase; experiment: Order-of-addition assay (APA of S. enterica DNA, SDS and hydroxypropyl β-CD); format: biochemical; conditions: 4% hydroxypropyl β-CD added prior to 0.4% SDS
Method: Order-of-addition assay: Detection time dependent on cyclodextrin addition prior to brief interaction of enzymes with SDS. Since SDS rapidly and irreversibly inactivated 9° Nm™ DNA polymerase, when the enzyme is instead simultaneously exposed to SDS and β-CD, the kinetics of complexation of the latter two substances must be very rapid, compared with the rate of interaction between SDS and the enzyme.
FIG. 6 depicts data related to detection of S. enterica DNA target (50,000 copies) by APA reactions in a wet “hot-start” format mediated by CleanAmp™ deoxynucleotides (CAdNTP) containing Tris pH7.6, KCl, (NH4)2SO4, MgSO4, Triton X-100, SYBRI, CAdNTP, 9° Nm™ DNA polymerase, with additions of 0.4% SDS (X), 4% hydroxypropyl β-CD (squares), SDS then immediately β-CD (circles), or β-CD then SDS (solid line) with mixing. Control (ctrl dotted line) was no additions. All samples included DNA target. Isothermal APA was at 68° C., collecting intercalating dye fluorescence every 15 seconds to monitor all exponential DNA amplification. […] Negative controls for each condition without S. enterica DNA confirmed specificity of indicated amplification products (not shown).

9° Nm™ DNA polymerase [8] = target: T2, 9° Nm™ DNA polymerase; experiment: APA amplification of Neisseria gonorrhea DNA with SDS, with or without HPβCD; format: biochemical; conditions: 4% HPβCD, lyophilized reagents, 500 copies N. gonorrhea genomic DNA
Method: This example provides SDS complexation analyses of the methods and compositions provided herein. […] Anionic detergent SDS at >0.01% is inhibitory to APA amplification of DNA, but the presence of the protective agent hydroxypropyl β-CD (βCD) allowed amplification to proceed despite≤0.2% SDS. The kinetics of hydroxypropyl β-CD sequestration of SDS were thus sufficiently rapid at a molar ratio of 2:1 (˜14 mM: −7 mM) to prevent 9° Nm™ DNA polymerase inactivation by SDS.
Standard APA reactions with or without 4% Sigma 389145 HPβCD containing “hot-start” CleanAmp™ deoxynucleotides (CAdNTP) and a sequence-specific molecular beacon detection probe were performed with lyophilized ((supplemented with dextran 40, Trehalose), FIG. 2B) or “wet” (no HPβCD, FIG. 2A) reagents including Tris pH 8.4, KCl, MgSO4, and (NH4)2SO4 Triton X-100, 9° Nm™ DNA polymerase, CAdNTP, primers and probe. For the lyophilized reactions, samples were prepared in 50 μl solution containing MgSO4, and (NH4)2SO4 with (shapes) or without (dashed) 500 copies of N. gonorrhea genomic DNA. After dried reagents were dissolved with the samples, various amounts of SDS were added, as indicated, and solutions were vortexed. For the wet reactions, 45 μl master mix containing all reaction components was added to 5 μl sample containing 1OX SDS (final concentration as indicated), with and without 500 copies of N. gonorrhea genomic DNA. Activation of CAdNTP by 2 minutes 90° C. was followed by APA at 68° C. for 10 minutes with detection of the NG amplification product by fluorescence collected every 15 seconds.

influenza B RNA = experiment: Reverse-transcription APA detection of influenza B RNA with SDS and lyophilized reagents containing cyclodextrin; format: biochemical; conditions: 0.2% SDS lysis solution, 500 IU influenza B RNA, 4% betaCD in lyophilized reagents
Method: APA was performed with lyophilized reagents (including β-cyclodextrin, dNTPs, 35 units reverse transcriptase, KCl, EGTA (or EDTA), Tx-100, Tween 80, poly rA, Tris pH8.4, dextran 40k, 4% betaCD, trehalose, primers, probe, 9° Nml™)
After two minutes at 58° C. (to facilitate reverse transcription) the temperature was raised to 68° C. for APA and fluorescence detection.

[9] = system: Chlamydia trachomatis elementary bodies; experiment: Lysis of Chlamydia trachomatis elementary bodies, read out by APA; conditions: APA reaction mix containing 4% cyclodextrin HP-βCD
Method: Elementary body lysis (˜40/reaction) was probed in this example using an APA-based assay. Elementary bodies (Acrometrix) were added to either cold chlamydia transport media (SPD containing sucrose, phosphate buffer, and glutamic acid), TE (Tris-EDTA 10-1), or lysis buffer containing 0.4% SDS, pH 2.2. The samples in TE or SDS were heated 5 minutes at 95° C. (heat lysis) or 2 minutes at 78° C. (SDS lysis), respectively. Then 5 μl (containing 40 elementary bodies) was added to “wet” APA reaction mix as above (pH 7.6 to facilitate isothermal CAdNTP activation) containing 4% cyclodextrin HP-βCD for isothermal APA (68° C.) with fluorescence from a chlamydia-specific molecular beacon collected every 15 seconds.

O[C@H](CS)[C@H](O)CS (racemic) [DTT, dithiothreitol]
Recovery of RNase A activity after pretreatment, with βCD (RNase A [1]; 2 ng RNase A, 2 minutes at 58° C., 10 mM DTT and/or 0.2% SDS, then 4% βCD): virtually full recovery of enzyme activity | Recovery of RNase A activity after pretreatment, without addition of βCD (RNase A [1]; 10 mM DTT alone, wet RNase alert format): did not impact recovery of RNase A activity | Influenza B RNA detection after nasal swab eluate pretreatment and SDS sequestration (nasal swab ribonucleases): restored detection | RNase A inactivation, activity upon sequestration of the detergent (RNase A [2]; 0.2% CTAB with 10 mM DTT, 4% HP-βCD): effectively irreversibly inactivated | RNase A activity after CTAB sequestration by 4% HP-βCD (RNase A [2]; with 10 mM DTT): no restored activity was detected | Influenza B virus APA performance in presence of RNAse A (RNase A [3]): performance equivalent to a no RNAse A control

CCCCCCCCCCCCCCCC[N+](C)(C)C.[Br-] [CTAB, cetyltrimethylammonium bromide]
RNase A inactivation, activity upon sequestration of the detergent (RNase A [2]; 0.2% CTAB only, RNase A 10 μg/ml and 1 μg/ml): activity was rapidly restored | RNase A activity after CTAB sequestration by 4% HP-βCD (RNase A [2]; without DTT): immediate reversibility | CTAB concentration giving complete inactivation of APA (9° Nm™ DNA polymerase [4]; absence of HP-βCD, 500 copies C. trachomatis total cell DNA): > 0.01%

OC[C@H]1O[C@@H]2O[C@H]3[C@H](O)[C@@H](O)[C@@H](O[C@H]4[C@H](O)[C@@H](O)[C@@H](O[C@H]5[C@H](O)[C@@H](O)[C@@H](O[C@H]6[C@H](O)[C@@H](O)[C@@H](O[C@H]7[C@H](O)[C@@H](O)[C@@H](O[C@H]1[C@H](O)[C@H]2O)O[C@@H]7CO)O[C@@H]6CO)O[C@@H]5CO)O[C@@H]4CO)O[C@@H]3CO [α-Cyclodextrin]
water solubility [5]: 50 mg/mL (≈ 51.4 mM)

Triton X-100
Influenza B RNA detection by APA after RNase A pretreatment (RNase A [6]): no RNA detection

hydroxypropyl-β-cyclodextrin [HP-βCD]
Effect on APA amplification (9° Nm™ DNA polymerase [7]): restoring detection time, although with reduced plateau | SDS concentration tolerated by APA amplification in presence of the protective agent (9° Nm™ DNA polymerase [8]): at least 0.2% | SDS concentration tolerated by APA amplification in presence of the protective agent (9° Nm™ DNA polymerase [8]; listed as hydroxypropyl β-CD): ≤ 0.2% | Restoration of assay performance in the presence of SDS (influenza B RNA): virtually complete restoration of assay performance | Impact of persisting 0.4% ionic detergent on 9° Nm™ DNA polymerase-mediated amplification [9]: had no impact | CTAB concentration completely tolerated by APA in presence of the protectant (9° Nm™ DNA polymerase [4]; with HP-βCD, lyophilized reactions): at least 0.2%
